Measurements as given in patent US20170119742A1, “MEDICAMENT FOR PREVENTING AND/OR TREATING STRESS DISEASES” (ONO PHARMACEUTICAL CO., LTD., priority 2014, published 2017).

Key:
brain TSPO = target: T1, brain TSPO (Rattus norvegicus, UniProt P16257); experiment: Ex vivo brain TSPO occupancy in rats, [3H] PK11195 radiotracer (Biological example 1); conditions: for receptor occupancy at 0.1 mg/kg / receptor occupancy at 0.3 mg/kg / receptor occupancy at 1 mg/kg / receptor occupancy at 3 mg/kg: rat, po, [3H] PK11195; for receptor occupancy at 0.1 mg/kg: 0.1 mg/kg oral; for receptor occupancy at 0.3 mg/kg: 0.3 mg/kg oral; for receptor occupancy at 1 mg/kg: 1 mg/kg oral; for receptor occupancy at 3 mg/kg: 3 mg/kg oral
T1 construct: measured by using brain (cerebral cortex and hippocampus) homogenates of the vehicle treated group and the compound of the present invention treated group; from tissue; host or cells: Wistar rat brain (cerebral cortex, hippocampus) homogenate
Experimental: Male Sic: Wistar rats (Japan SLC, Inc., at the time of use: 11 weeks old) was exposed to physical and mental stressors (Journal of Pharmacological Science, Vol. 104, p. 263-273, 2007). The vehicle (0.5 w/v % methylcellulose 400 cP solution) or the compound of the present invention (0.1, 0.3, 1 and 3 mg/kg) was orally administered. Two hours after the administration, the stressor load was started by putting the rat in a restraint stress cage (Natsume Seisakusho Co., Ltd.). The antistress effect was evaluated by measuring the stool weight which was excreted during the stressor load of 1 hour (n=12 in each group).
Next, brain TSPO occupancy of the compound of the present invention was measured by using brain (cerebral cortex and hippocampus) homogenates of the vehicle treated group and the compound of the present invention treated group, using [^3H] PK11195 as a radiotracer. PK11195 was dissolved in dimethyl sulfoxide (DMSO) to prepare a 4 mmol/L solution. After preparing an ethanol solution of 100 nmol/L [^3H] PK11195 (PerkinElmer, Inc.), the solution was diluted 50-fold with 50 mmol/L HEPES buffer (Sigma-Aldrich Co.). In the case of determining the total binding amount of the radiotracer, 50 mmol/L HEPES (99 μL) and DMSO (1 μL) were added to Nunc MiniSorp (trade name, 12×75 mm, Thermo Fisher Scientific Inc.). In the case of determining the nonspecific binding amount of the radiotracer, 4 mmol/L PK11195 (1 μL) was substituted for DMSO (1 μL). The brain homogenate (50 μL) derived from cerebral cortex or the hippocampus was added to the tube. Then [^3H] PK11195 (50 μL) (cerebral cortex: final concentration 0.4532 nmol/L, hippocampus: final concentration 0.4520 nmol/L) was added and stirred, and the mixture was incubated for 90 minutes at 4° C. After completion of the reaction, ice-cold 50 mmol/L HEPES (2 mL) was added to the tube, and then the mixture was suction filtered on a glass fiber filter (GF/B, Brandel Inc.) which pretreated with 0.3 w/v % polyethyleneimine (Sigma-Aldrich Co.), to collect the brain homogenate. After drying the glass fiber filter, the absorbing part of the brain homogenate was transferred to a liquid scintillation vial. ACS-II scintillation cocktail (7 mL) was added to the liquid scintillation vial and stirred, and the radioactivity was measured by liquid scintillation counter (TRI-CARB2900TR, PerkinElmer Life and Analytical Sciences Inc.). Specific binding amount (dpm) of [3H] PK11195 in each brain homogenate was set to a value obtained by subtracting the nonspecific binding amount (dpm) from the total binding amount (dpm). TSPO occupancy (%) in cerebral cortex and hippocampus, of the compound of the present invention treated group, were calculated according to the following equation.
TSPO Occupancy (%)=(1−X/Y)×100
X: Specific binding amount (dpm) in each brain homogenate Y: Average value (dpm) of specific binding amount in control group

[1] = system: female diarrhea-type IBS patients; experiment: PSS (Perceived Stress Scale) in the clinical trial of Biological example 10; format: in vivo, human; conditions: 60 mg treatment
Experimental: (§1) In the clinical trial of Biological example 10, the therapeutic effect of the compound of the present invention 60 mg treatment on depression and anxiety-related diseases were evaluated using PSS (Perceived Stress Scale) (refer to Journal of Health and Social Behavior, 24, 386-396, 1983), HAM-A (Hamilton Anxiety Scale) (refer to The British journal of medical psychology, 32, 50-55, 1959) and HAM-D (Hamilton Depression scale) (refer to Journal of Neurology, Neurosurgery and Psychiatry, 23, 56-62, 1960) as rating scales.

[2] = system: fear conditioning stress rats; experiment: Antianxiety effect (1): freezing time in fear conditioning stress rats; format: in vivo; conditions: rat, 1 and 3 mg/kg oral, 2 h before 30 min stress load, Dunnett test
Description: Male Crj: CD (SD) rats (Charles River Laboratories Japan, Inc., at the time of evaluation: 8 weeks old) were used to load conditioned fear stress in accordance with Funatsu et al. method (European Journal of Pharmacology, Vol. 573, p. 190-195, 2007). The day before of fear conditioning, the rat was put in an electric shock device which was placed in a soundproof box to acclimate to the evaluation environment. The day of fear conditioning, the rat was put in the electric shock device. The conditioning, 5 seconds electric current load (2.0 mA) and light irradiation (3 pieces of 40 W fluorescent bulbs) followed by 3 seconds warning sound (60 to 70 db), was carried out a total 15 times at 1 minute intervals. The rat of the non-stressed group was given a warning sound and light irradiation without performing the electric current load during fear conditioning. The day after the fear conditioning, the vehicle (0.5 w/v % methylcellulose 400 cP solution) or the compound of the present invention (0.3, 1 or 3 mg/kg) was orally administered to the rat. Two hours after the administration, the rat was put in the electric shock device. […] The behavior of the rat was photographed with a video camera during the 30 minutes of stress load and freezing time was measured.

[3] = system: female diarrhea-type IBS patients; experiment: HAM-D (Hamilton Depression scale) in the clinical trial of Biological example 10; format: in vivo, human; conditions: 60 mg treatment
Experimental: as §1

Work on COc1cc(Cl)ccc1[C@H]1c2[nH]c3cccc(F)c3c2C2(CC2)CN1C(C)=O [the compound of the present invention, (1S)-2-acetyl-1-(4-chloro-2-methoxyphenyl)-5-fluoro-1,2,3,9-tetrahydrospiro[β-carboline-4,1′-cyclopropane]] yielded a receptor occupancy at 0.1 mg/kg (brain TSPO; rat cerebral cortex) of 11.8%, a receptor occupancy at 0.3 mg/kg (brain TSPO; rat cerebral cortex) of 47.7% and a receptor occupancy at 1 mg/kg (brain TSPO; rat cerebral cortex) of 83.8%. For the same compound, the receptor occupancy at 3 mg/kg (brain TSPO; rat cerebral cortex) was 94.5%, the receptor occupancy at 0.1 mg/kg (brain TSPO; rat hippocampus) was 25.7% and the receptor occupancy at 0.3 mg/kg (brain TSPO; rat hippocampus) was 50.7%. The receptor occupancy at 1 mg/kg (brain TSPO; rat hippocampus) was 86.3%, the receptor occupancy at 3 mg/kg (brain TSPO; rat hippocampus) was 95.1% and the “brain TSPO occupancy required to exert antistress, antidepressant and antianxiety effect” value (brain TSPO; rats, achieved by 0.3 to 3 mg/kg, from Biological examples 1 to 4) was no less than 50%. The “PSS score, 4th week” value ([1]; Patient A, baseline 35) was 19, the “PSS score, Amount of change from baseline” value (shortened to “PSS score, Amount of change”) ([1]; Patient A, baseline 35, 4th week) was −16 and the “PSS score, 4th week” value ([1]; Patient B, baseline 23) was 13. For the same compound, the “PSS score, Amount of change” value ([1]; Patient B, baseline 23, 4th week) was −10, the “PSS score, 4th week” value ([1]; Patient C, baseline 18) was 6 and the “PSS score, Amount of change” value ([1]; Patient C, baseline 18, 4th week) was −12. The “freezing time vs. vehicle control group” value [2] was “shortened this extended freezing time significantly”, the “HAM-D score, 4th week” value ([3]; Patient D, baseline 18) was 2 and the “HAM-D score, Amount of change from baseline” value (“HAM-D score, Amount of change” for short) ([3]; Patient D, baseline 18, 4th week) was −16. For the same compound, the “HAM-D score, 4th week” value ([3]; Patient E, baseline 13) was 3, the “HAM-D score, Amount of change” value ([3]; Patient E, baseline 13, 4th week) was −10 and the “HAM-D score, 4th week” value ([3]; Patient F, baseline 20) was 13. For the same compound, the “HAM-D score, Amount of change” value ([3]; Patient F, baseline 20, 4th week) was −7, the “HAM-D score, 4th week” value ([3]; Patient G, baseline 13) was 4 and the “HAM-D score, Amount of change” value ([3]; Patient G, baseline 13, 4th week) was −9.
